From PubChem BioAssay AID1963441 (Molecular Pharmacology Branch, DTP, NCI, 2024)
pIC50: −log10 of the molar value.

System: NCI-H1876 complex spheroid growth, % test/control
Assay: Anticancer human tumor NCI-H1876 cell line growth inhibition [Asc];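 further: compound exposure lasted 7 days starting three days after seeding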;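 on viability, T/C: 100% = DMSO vehicle control wells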
Conditions: for pIC50: curve of first compound; for viability, T/C: stronger effect = lower value; active means viability on the fitted dose curve at most 10% of control; inactive means the rest
Experimental: Multicellular complex tumor spheroid response to apoptosis pathway targeting inhibitors Alrizomadlin, Pelcitoclax, and Dasminapant in combination with a variety of drugs and investigational agents in selected tumor cell lines
The MDM2 inhibitor alrizomadlin, the Bcl-2/Bcl-xL inhibitor pelcitoclax, and the IAPs inhibitor dasminapant were evaluated both individually and in combination with standard of care and investigational anticancer small molecules within a complex spheroid model of solid tumors. . Complex spheroids include a stromal component modeled by human endothelial cells (HUVEC) and fibroblasts modeled by human mesenchymal stem cells (MSCs). The concentration ranges selected for each drug and investigational agent were based upon clinically achievable concentrations if the clinical Cmax of the agent was known.
Compounds. The drugs and investigational agents: alrizomadlin (APG-115; NSC831270), pelcitoclax (APG-1252; NSC835773), dasminapant (APG-1387;NSC834197), TAK-243 (NSC785004), copanlisib (NSC809693), olaparib (NSC753686), talazoparib (NSC767125), cobimetinib (NSC 768068), eltanexor (KPT-8602, NSC 794443), abemaciclib (NSC 768073), sotorasib (NSC818433), adagrasib (NSC 831453), MRTX-1133 (NSC 836407), Iadademestat (ORY1001, NSC 806812), and RMC-4630 (NSC839698), were obtained from the NCI Developmental Therapeutics Program Chemical Repository. The FDA-approved anticancer drug set is available from the Developmental Therapeutics Program at https://dtp.cancer.gov/organization/dscb/obtaining/available plates.htm. […] The stock solutions were prepared in dimethyl sulfoxide (DMSO, Sigma-Aldrich, St. Louis, MO, cat. D2650) at 800-fold the tested concentration and stored at -70 degrees C prior to their use. All drugs and investigational agents were tested over a range starting from a high concentration at or near the clinical Cmax and decreasing in half-log increments. If the clinical Cmax for an agent had not been determined, the highest concentration tested was 10 microM.
The patient-derived cancer (PDC) cell lines include five colon adenocarcinomas: 186277-243-T-J2-PDC, 616215-338-R-J1-PDC, 439559-082-T-J2-PDC, 463943-066-T-J2-PDC, and 519858-162-T-J1-PDC; three pancreatic carcinomas: 323965-272-R-J2-PDC, 521955-158-R6-J3-PDC, and 521955-158-R2-J5-PDC; two uterine sarcomas: 327498-152-R-J2-PDC and 993429-296-R-J1-PDC; two rhabdomyosarcomas: 755483-174-R-J1-PDC and 772245-204-R-J1-PDC; two soft tissue sarcomas: 126254-015-R-J1-PDC and 494315-158-R-J1-PDC; two malignant fibrous histiocytomas: 317291-083-R-J1-PDC and 596521-263-R-J1-PDC; two breast carcinomas: 171881-019-R-J1-PDC and 885512-296-R-J2-PDC; and one ovarian carcinoma: 6556581-035-R-J-PDC were obtained from the NCI PDMR, (https://pdmr.cancer.gov). The established cell lines HSSY-2 synovial sarcoma (RRID:CVCL 8719), SYO-1 synovial sarcoma (RRID:CVCL_7146), MPNST malignant peripheral neural sheath tumor were obtained from the Sloan Kettering Institute. The following established cell lines were purchased from the American Type Culture Collection (ATCC, Manassas, VA), Sor the received from the NCI repository:, PANC-1 pancreatic carcinoma (CRL-1469, RRID:CVCL_0480), OVCAR-5 ovarian carcinoma (RRID:CVCL_1628), OVCAR-8 ovarian carcinoma (RRID:CVCL_1629), , MCF-7 breast carcinoma (CRL-12584, RRID:CVCL_0031), MDA-MB-231 breast carcinoma (CRL-12532, RRID:CVCL_0062), NCI-H1876 small cell lung carcinoma (CRL-5902, RRID:CVCL_1503), NCI-H510A small cell lung carcinoma (HTB-184, RRID:CVCL_1565), NCI-H1417 (CRL-5869, RRID:CVCL_1469), and NCI-H196 small cell lung carcinoma (CRL-5823, RRID:CVCL_1509). Dr. Peter Houghton (Greehey Children's Cancer Research Institute, University of Texas Health Science Center, San Antonio, TX) provided Rh-18 rhabdomyosarcoma (RRID:CVCL_1659). Pooled donor human umbilical vein endothelial cells (HUVEC, Lonza, cat. CC-2519) and human mesenchymal stem cells (hMSC, Lonza, cat. PT-2501) were purchased from Lonza (Walkersville, MD).
Cell Culture. […]

[1] = second compound 0.00949 µM, first compound 0.0316 µM
[2] = second compound 0.00949 µM, first compound 0.1 µM
[3] = second compound 0.03 µM, first compound 0.0316 µM
[4] = second compound 0.03 µM, first compound 0.1 µM
[5] = second compound 0.0949 µM, first compound 0.0316 µM
[6] = second compound 0.0949 µM, first compound 0.1 µM
[7] = second compound 0.3 µM, first compound 0.0316 µM
[8] = second compound 0.3 µM, first compound 0.1 µM
[9] = second compound 0.949 µM, first compound 0.0316 µM
[10] = second compound 0.949 µM, first compound 0.1 µM
[11] = second compound 3 µM, first compound 0.0316 µM
[12] = second compound 3 µM, first compound 0.1 µM

Cn1ncnc1[C@H]1c2n[nH]c(=O)c3cc(F)cc(c23)N[C@@H]1c1ccc(F)cc1 + CCN1C(C(=O)NC23CCC(C(=O)O)(CC2)CC3)C(c2cccc(Cl)c2F)C2(C(=O)Nc3cc(Cl)ccc32)C12CCCCC2
< 7.00: pIC50 (second compound 0.00949 µM) | pIC50 (second compound 0.03 µM) | pIC50 (second compound 0.0949 µM) | pIC50 (second compound 0.3 µM) | pIC50 (second compound 0.949 µM) | pIC50 (second compound 3 µM)
inactive: viability, T/C (second compound 0.00949 µM, first compound 0.000316 µM) 123% | viability, T/C (second compound 0.00949 µM, first compound 0.001 µM) 89.9% | viability, T/C (second compound 0.00949 µM, first compound 0.00316 µM) 113% | viability, T/C (second compound 0.00949 µM, first compound 0.01 µM) 102% | viability, T/C [1] 100% | viability, T/C [2] 91.6% | viability, T/C (second compound 0.03 µM, first compound 0.000316 µM) 100% | viability, T/C (second compound 0.03 µM, first compound 0.001 µM) 102% | viability, T/C (second compound 0.03 µM, first compound 0.00316 µM) 107% | viability, T/C (second compound 0.03 µM, first compound 0.01 µM) 92.6% | viability, T/C [3] 106% | viability, T/C [4] 95.4% | viability, T/C (second compound 0.0949 µM, first compound 0.000316 µM) 101% | viability, T/C (second compound 0.0949 µM, first compound 0.001 µM) 99.4% | viability, T/C (second compound 0.0949 µM, first compound 0.00316 µM) 111% | viability, T/C (second compound 0.0949 µM, first compound 0.01 µM) 104% | viability, T/C [5] 113% | viability, T/C [6] 89% | viability, T/C (second compound 0.3 µM, first compound 0.000316 µM) 103% | viability, T/C (second compound 0.3 µM, first compound 0.001 µM) 120% | viability, T/C (second compound 0.3 µM, first compound 0.00316 µM) 111% | viability, T/C (second compound 0.3 µM, first compound 0.01 µM) 114% | viability, T/C [7] 110% | viability, T/C [8] 98.3% | viability, T/C (second compound 0.949 µM, first compound 0.000316 µM) 118% | viability, T/C (second compound 0.949 µM, first compound 0.001 µM) 134% | viability, T/C (second compound 0.949 µM, first compound 0.00316 µM) 117% | viability, T/C (second compound 0.949 µM, first compound 0.01 µM) 134% | viability, T/C [9] 123% | viability, T/C [10] 91.6% | viability, T/C (second compound 3 µM, first compound 0.000316 µM) 103% | viability, T/C (second compound 3 µM, first compound 0.001 µM) 105% | viability, T/C (second compound 3 µM, first compound 0.00316 µM) 81.3% | viability, T/C (second compound 3 µM, first compound 0.01 µM) 95.5% | viability, T/C [11] 95.2% | viability, T/C [12] 95.5%

O=C(c1cc(Cc2n[nH]c(=O)c3ccccc23)ccc1F)N1CCN(C(=O)C2CC2)CC1 + CCN1C(C(=O)NC23CCC(C(=O)O)(CC2)CC3)C(c2cccc(Cl)c2F)C2(C(=O)Nc3cc(Cl)ccc32)C12CCCCC2
< 5.00: pIC50 (second compound 0.00949 µM) | pIC50 (second compound 0.03 µM) | pIC50 (second compound 0.0949 µM) | pIC50 (second compound 0.3 µM) | pIC50 (second compound 0.949 µM) | pIC50 (second compound 3 µM)
inactive: viability, T/C [1] 99.3% | viability, T/C [2] 94.5% | viability, T/C (second compound 0.00949 µM, first compound 0.316 µM) 118% | viability, T/C (second compound 0.00949 µM, first compound 1 µM) 102% | viability, T/C (second compound 0.00949 µM, first compound 3.16 µM) 100% | viability, T/C (second compound 0.00949 µM, first compound 10 µM) 80.2% | viability, T/C [3] 104% | viability, T/C [4] 100% | viability, T/C (second compound 0.03 µM, first compound 0.316 µM) 97.4% | viability, T/C (second compound 0.03 µM, first compound 1 µM) 108% | viability, T/C (second compound 0.03 µM, first compound 3.16 µM) 116% | viability, T/C (second compound 0.03 µM, first compound 10 µM) 82% | viability, T/C [5] 101% | viability, T/C [6] 106% | viability, T/C (second compound 0.0949 µM, first compound 0.316 µM) 104% | viability, T/C (second compound 0.0949 µM, first compound 1 µM) 102% | viability, T/C (second compound 0.0949 µM, first compound 3.16 µM) 112% | viability, T/C (second compound 0.0949 µM, first compound 10 µM) 85.5% | viability, T/C [7] 106% | viability, T/C [8] 116% | viability, T/C (second compound 0.3 µM, first compound 0.316 µM) 108% | viability, T/C (second compound 0.3 µM, first compound 1 µM) 102% | viability, T/C (second compound 0.3 µM, first compound 3.16 µM) 112% | viability, T/C (second compound 0.3 µM, first compound 10 µM) 97% | viability, T/C [9] 122% | viability, T/C [10] 114% | viability, T/C (second compound 0.949 µM, first compound 0.316 µM) 110% | viability, T/C (second compound 0.949 µM, first compound 1 µM) 123% | viability, T/C (second compound 0.949 µM, first compound 3.16 µM) 117% | viability, T/C (second compound 0.949 µM, first compound 10 µM) 83.2% | viability, T/C [11] 102% | viability, T/C [12] 108% | viability, T/C (second compound 3 µM, first compound 0.316 µM) 101% | viability, T/C (second compound 3 µM, first compound 1 µM) 106% | viability, T/C (second compound 3 µM, first compound 3.16 µM) 98% | viability, T/C (second compound 3 µM, first compound 10 µM) 76.9%
